Source: patent US20050203013A1, “Methods for inhibiting vascular permeability” (priority 2002, published 2005)

How the values were obtained:
skin vessel permeability = assay: Miles vascular permeability assay (Example 3); assay type: in vivo, SCID mice
Description: SCID mice were injected subcutaneously (s.c.) with TNP-470 or HPMA copolymer-TNP-470 (30 mg/Kg TNP-equiv.) for three days, with Y27632 (50 nM s.c.) for 11 days, with angiostatin (200 mg/kg/day s.c.) for five days, or with saline (250 μl s.c.) for 5 days (n=12) prior to performing the Miles assay ([…] et al., 1996; Miles and Miles, 1952; Streit et al., 2000). Briefly, Evan's blue dye (100 μl of a 1% solution in 0.9% NaCl) was injected intravenously (i.v.) into mice. After 10 minutes, 50 μl of human VEGF165 (1 ng/μl), PAF (100 μM), CNF-1 (100 ng), histamine (1.2 μg/ml) or PBS (50 ul) were injected intradermally into the pre-shaved back skin. After 20 minutes, the animals were euthanized and an area of skin that included the blue spot resulting from leakage of the dye was removed. Evan's blue dye was extracted from the skin by incubation with formamide for 5 days at room temperature, and the absorbance of extracted dye was measured at 620 nm using a spectrophotometer. The unpaired Student t test was used for statistical analysis.

chick aortic rings = assay: Chick aortic ring assay; assay type: cell-based
Description: Aortic arches were dissected from day-14 chick embryos and cut into cross-sectional fragments, everted to expose the endothelium, and explanted in Matrigel. When cultured in serum-free MCDB-131 medium, endothelial cells outgrow and three-dimensional vascular channel formation occurred within […]. Free and conjugated TNP-470 were added to the culture.

[1] = system: U87 glioblastoma tumor blood vessel permeability; assay: Miles assay on tumor-bearing mice (Example 3), U87; design: species or system SCID mice; details: mouse, in vivo
Description: Female SCID mice ( 8 weeks, 20 g) were inoculated s.c. with 5×10^6 viable U87 glioblastoma cells or viable A2058 human melanoma cells or BXPC3 pancreas adenocarcinoma cells. Female nu/nu mice were inoculated with MCF-7 or MDA-MB-231 breast carcinoma cells in the mammary fat pad. C57B1/6J were inoculated with LLC. […] blue dye was then injected i.v. and extravasation of dye assessed as above. Also, blood was withdrawn to measure VPF/VEGF levels in plasma and in tumors (n=5 from each group). Tumors (n=5 per group) were dissected, weighed and cut in half. Half of the tumor was placed in formalin and half was analyzed for VPF/VEGF protein by ELISA (see below). Formalin fixed tumors were processed for sectioning and staining with H & E, CD31, smooth muscle actin (SMA) and proliferating cell nuclear antigen (PCNA) according to the manufacturers' instructions.

RhoA = RhoA activation assay; assay type: cell-based, Human; details: HMVEC-d
Description: • pGST-TRBD bacteria were grown and induced with isopropyl-thiogalactoside. The bacterial suspensions were divided into 50 ml aliquots and then harvested and frozen at −80° C. To prepare the GST-TRBD beads, each aliquot of frozen bacteria was resuspended in 2 ml of cold PBS, and then 20 μl of 1 M dithiothreitol (DTT), 20 μl of 0.2 M PMSF, and 40 μl of 50 mg/ml lysozyme were added. The sample was incubated on ice for 30 minutes. Next, 225 μL of 10% Triton X-100, 22.5 μL of IM MgCl2, 22.5 μl of 2000 KU/ml DNAse were added and the sample was incubated on ice for another 30 min. The supernatant was collected and incubated with 100 μl glutathione-coupled Sepharose 4B beads (Pharmacia Biotech) at 4° C. for 45 minutes. The beads were then washed with bead washing buffer (PBS with 10 mM DTT and 1% Triton X-100) and resuspended in the same buffer to give a 50% bead slurry.
Meanwhile, 24 hours serum-starved HMVEC-d cells were treated with 5 ng/ml TNP-470 at 37° C. for 2 hours, and then stimulated with 10 ng/ml of VEGF, PAF (10 nM), or histamine ([…]) for 5 minutes. Stimulation was stopped by adding cold PBS. Cells were lysed with lysis buffer (150 mM NaCl, 0.8 mM MgCl2, 5 mM EGTA, 1% IGEPAL, 50 mM HEPES, pH 7.5, 1 mM PMSF, 10 μg/ml leupeptin, and 10 μg/ml aprotinin). The supernatant was isolated and incubated with 50 μl of GST-TRBD beads at 4° C. for 45 minutes. Protein bound to beads was washed with AP wash buffer (50 mM Tris-HCl, pH 7.2, 1% Triton X-100, 150 mM NaCl, 10 mM MgCl2, 1 mM PMSF, 10 μg/ml leupeptin, and 10 μg/ml aprotinin) and analyzed by SDS-PAGE with an antibody against RhoA (Santa Cruz Biotechnology, CA).

Water solubility = assay type: physicochemical
Description: To evaluate the biological activity of HPMA-TNP-470, the following assays were performed: […]

Ca2+ influx in HMVEC-d = assay: Intracellular Ca2+ release; assay type: cell-based, Human
Description: For detaching cells, serum-starved HMVEC-d were incubated with 4 ml of collagenase solution (0.2 mg/ml collagenase, 0.2 mg/ml soybean trypsin inhibitor, 1 mg/ml BSA, and 2 mM EDTA in PBS) at 37° C. for 30 minutes. Cell pellets were washed with 2 ml of Ca^2+ buffer (5 mM KCl, 140 mM NaCl, 1 mM CaCl2, 1 mM MgCl2, 5.6 mM glucose, 0.1% BSA, 0.25 mM sulfinpyrazone, and 10 mM HEPEs, pH 7.5) and then resuspended in 2 ml of the same buffer containing 5 ng/ml TNP-470. The cells were incubated at 37° C. for 2 hours in suspension. During the last 30 minutes of incubation, 1 μg/ml Fura-2-AM Fura 2-AM (acetoxymethyl ester derivative of Fura 2) and 0.02% pluronic F-127 were added to the suspension. Cells (106) were collected and resuspended in 2 ml Ca^2+ buffer for VPF/VEGF (10 ng/ml), PAF (20 nM), or histamine ([…]) stimulation. Intracellular Ca^2+ concentrations were measured with the DeltaScan Illumination System (Photon Technology International Inc.) using Felix software, while rocking the tubes.

CO[C@@H]1[C@H](OC(=O)NC(=O)CCl)CC[C@]2(CO2)[C@H]1[C@@]1(C)O[C@@H]1CC=C(C)C [TNP-470]
CNF-1-induced Evan's blue-albumin extravasation (skin vessel permeability; CNF-1 intradermal): inhibited
decrease of PAF-induced permeability (skin vessel permeability; PAF intradermal): 75%
low-level permeability induced by intradermal injections of PBS (skin vessel permeability; PBS intradermal): blocked
inhibition of Evan's blue dye extravasation from VPF/VEGF injection sites (skin vessel permeability; VPF/VEGF intradermal): ~70%
decrease of histamine-induced permeability (skin vessel permeability; histamine intradermal): 80%
concentration showing efficacy (reduced number and length of vascular sprouts) (chick aortic rings): 50 pg/mL
concentration that completely prevented outgrowth (chick aortic rings): 100 pg/mL
Evan's blue extravasation into U87 glioblastomas [1]: did not inhibit
PAF-induced RhoA activation (RhoA): inhibited
VPF/VEGF-induced RhoA activation (RhoA): significantly suppressed
histamine-induced RhoA activation (RhoA): inhibited
water solubility (Water solubility): not water-soluble
Ca2+ influx induced by PAF (Ca2+ influx in HMVEC-d): decreased
Ca2+ influx induced by VPF/VEGF (Ca2+ influx in HMVEC-d): decreased
Ca2+ influx induced by histamine (Ca2+ influx in HMVEC-d): decreased
